The values that follow come from ChEMBL document CHEMBL1201862, “PubChem BioAssay data set” (2004).

Structures are written as SMILES.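 Where inhibition never reached the appropriate level, the endpoint shown equals the highest concentration tested. Otherwise, values were interpolated linearly from a five-concentration, 48-hour dose response in 96-well plates. Abbreviation: GI50, concentration required for 50% inhibition of growth.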 Activity calls are given as the source filed them. Rule as the data show it: active = GI50 up to about 1.1 µM and inactive = higher.

Experiment in all cases: NCI tumour cell line growth inhibition, 48 h
Assay [1] has as its system SK-MEL-5.
Assay [2] relates to MDA-N.
The subject of assay [3] is IGROV-1.
Assay [4] has as its system OVCAR-8.
Assay [5] relates to HT-29.
In assay [6] the test system is HCT-15.
In assay [7] the test system is HOP-18.
The subject of assay [8] is SK-MEL-2.
The test system of assay [9] is M14.
For assay [10], the system named is CAKI-1.
The test system of assay [11] is SF-268.
Assay [12] deals with TK-10.
For assay [13], the system named is RXF 393.
Assay [14] deals with M19-MEL.
The subject of assay [15] is SNB-78.
Assay [16] concerns HOP-62.
Assay [17] deals with Hs-578T.
Assay [18] deals with COLO 205.
Assay [19] concerns SK-OV-3.

With `CC1=C2C(=O)[C@H]3[C@@H](CC=C4C[C@@H](O)CC[C@@]43C)[C@@H]2CC[C@]12O[C@@H]1C[C@H](C)CN[C@H]1[C@H]2C` [JERVINE], the GI50 was > 39.8 µM (inactive) in assay [1]; > 100 µM (inactive) in assay [2]; > 54.7 µM (inactive) in assay [3]; > 47.1 µM (inactive) in assay [4]; > 55.2 µM (inactive) in assay [5]; above 50.8 µM in assay [6]. Moreover, the GI50 is 17.1 µM (inactive) in assay [7]; > 50.7 µM (inactive) in assay [8]; > 41.7 µM (inactive) in assay [9]; > 40.8 µM (inactive) in [10]; > 46.6 µM (inactive) in [11]; > 37.2 µM (inactive) in [12]. The GI50 in assay [13] was > 38.5 µM (inactive); in assay [14] it was 29.4 µM (inactive); in assay [15] it was 19.2 µM (inactive); in assay [16], > 39.5 µM (inactive); in assay [17], > 100 µM (inactive); in assay [18], > 75.5 µM (inactive). The GI50 in [19] was > 40.6 µM (inactive).
